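1) Cells in 96-well plates. 2) Compound, 48 h, 5 concentrations. 3) Linear interpolation between surrounding doses. 4) Unreached endpoint = highest concentration. Definition used: TGI = concentration required for complete inhibition of growth.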 Where a SMILES comes first, the peptide text is derived from it. The star is where a group is joined. Boc = CC(C)(C)OC(=O)*
How the values were obtained:
Experiment in all cases: NCI-60 cell line screen, 48 h
ACHN renal = tested on: ACHN renal
EKVX NSCLC = tested on: EKVX NSCLC
HL-60(TB) leukemia = tested on: HL-60(TB) leukemia
HOP-92 NSCLC = tested on: HOP-92 NSCLC
HT29 colon = tested on: HT29 colon
K-562 leukemia = tested on: K-562 leukemia
M14 melanoma = tested on: M14 melanoma
MOLT-4 leukemia = tested on: MOLT-4 leukemia
OVCAR-8 ovarian = tested on: OVCAR-8 ovarian
RPMI-8226 leukemia = tested on: RPMI-8226 leukemia
SF-295 CNS = tested on: SF-295 CNS
SNB-19 CNS = tested on: SNB-19 CNS
SW-620 colon = tested on: SW-620 colon
T-47D breast = tested on: T-47D breast
U251 CNS = tested on: U251 CNS
DU-145 prostate = tested on: DU-145 prostate
MALME-3M melanoma = tested on: MALME-3M melanoma
NCI-H460 lung = tested on: NCI-H460 lung

Row | SMILES | TGI (ACHN renal) | TGI (EKVX NSCLC) | TGI (HL-60(TB) leukemia) | TGI (HOP-92 NSCLC) | TGI (HT29 colon) | TGI (K-562 leukemia) | TGI (M14 melanoma) | TGI (MOLT-4 leukemia) | TGI (OVCAR-8 ovarian) | TGI (RPMI-8226 leukemia) | TGI (SF-295 CNS) | TGI (SNB-19 CNS) | TGI (SW-620 colon) | TGI (T-47D breast) | TGI (U251 CNS) | TGI (DU-145 prostate) | TGI (MALME-3M melanoma) | TGI (NCI-H460 lung)
1 | CCC(=O)N(c1ccccc1)C(C)CN1CCC(O)(c2cccc(C(F)(F)F)c2)CC1 (stereo unspecified) | > 100 µM | > 100 µM | 39.3 µM | 61.6 µM | 27.2 µM | 75.4 µM | 33.4 µM | 44.5 µM | > 100 µM | 45.3 µM | > 100 µM | > 100 µM | > 100 µM | 98.4 µM | > 100 µM | – | – | –
2 | CC(=O)c1cc(CC2Cc3cc4c(cc3C2=O)CCC4)cc2c1CCC2 (stereo unspecified) | > 100 µM | > 100 µM | 56.2 µM | – | > 100 µM | > 100 µM | > 100 µM | 90.5 µM | > 100 µM | 69.2 µM | > 100 µM | > 100 µM | > 100 µM | > 100 µM | > 100 µM | > 100 µM | > 100 µM | > 100 µM
3 | CC(C)(C)CNCCCNc1ccc(Cl)cc1 | > 100 µM | > 100 µM | 0.172 µM | 79.4 µM | 56.5 µM | – | 58.6 µM | 25.6 µM | > 100 µM | 55.4 µM | 69.1 µM | > 100 µM | > 100 µM | – | > 100 µM | > 100 µM | 53.9 µM | > 100 µM
4 | CN1CN(c2ccccc2)C2(CCN(C3Nc4ccccc4O3)CC2)C1=O (stereo unspecified) | 55.9 µM | – | 43.5 µM | – | 33 µM | > 100 µM | 46.2 µM | 92.2 µM | 82.1 µM | 58 µM | 33.6 µM | 74.4 µM | > 100 µM | 58.8 µM | 33.3 µM | 60.1 µM | 38 µM | 43.9 µM
5 | NC1=NCC(CN2CCCCC2)O1 (stereo unspecified) | > 100 µM | > 100 µM | > 100 µM | – | > 100 µM | > 100 µM | > 100 µM | > 100 µM | > 100 µM | > 100 µM | > 100 µM | > 100 µM | > 100 µM | > 100 µM | > 100 µM | – | > 100 µM | > 100 µM
6 | COC(=O)CNC(=O)CNC(=O)CSc1nnc(COc2ccc(Cl)cc2)n1-c1ccccc1 | > 100 µM | > 100 µM | – | 49.5 µM | > 100 µM | > 100 µM | > 100 µM | > 100 µM | > 100 µM | 78.1 µM | > 100 µM | > 100 µM | > 100 µM | – | > 100 µM | > 100 µM | 35.3 µM | > 100 µM
7 | COC(O)C(=O)c1c2c(cc3c1CCC3)CCC2 (stereo unspecified) | > 100 µM | > 100 µM | 79.9 µM | – | > 100 µM | > 100 µM | > 100 µM | > 100 µM | > 100 µM | > 100 µM | > 100 µM | > 100 µM | > 100 µM | > 100 µM | > 100 µM | > 100 µM | > 100 µM | > 100 µM
8 | CC(NC(=O)C1CCCN1C(=O)CNC(=O)OC(C)(C)C)C(=O)O (stereo not drawn) (Boc-Gly-Pro-Ala-OH; configuration not given here) | > 100 µM | > 100 µM | – | > 100 µM | > 100 µM | > 100 µM | > 100 µM | > 100 µM | > 100 µM | > 100 µM | > 100 µM | > 100 µM | > 100 µM | > 100 µM | > 100 µM | > 100 µM | > 100 µM | > 100 µM
9 | CC1OC(OC2C(OC(=O)[C@]34CCC(C)(C)CC3C3=CCC5[C@@]6(C)C[C@H](O)[C@H](OC7OC(COC8OC(CO)C(O)C(O)C8O)C(O)C(O)C7O)[C@@](C)(C(=O)O)C6CC[C@@]5(C)C3(C)CC4)OCC(O)C2O)C(O)C(O)C1OC1OCC(O)C(O)C1O (stereo partly specified) | > 100 µM | > 100 µM | > 100 µM | > 100 µM | > 100 µM | > 100 µM | – | > 100 µM | > 100 µM | > 100 µM | > 100 µM | > 100 µM | > 100 µM | – | > 100 µM | – | > 100 µM | > 100 µM
10 | CO[C@H](C(=O)O[C@H]1C(=O)N2CC[C@@H]3CCC[C@H]1C32C)c1ccccc1 (stereo partly specified) | > 100 µM | > 100 µM | > 100 µM | – | > 100 µM | > 100 µM | > 100 µM | > 100 µM | > 100 µM | > 100 µM | > 100 µM | > 100 µM | > 100 µM | – | > 100 µM | – | > 100 µM | > 100 µM
11 | CCOC(=O)c1cc(C2=CCNC2=O)c(-c2cc(C)no2)[nH]1 | > 100 µM | > 100 µM | 56.8 µM | – | > 100 µM | > 100 µM | > 100 µM | > 100 µM | > 100 µM | > 100 µM | > 100 µM | > 100 µM | > 100 µM | > 100 µM | > 100 µM | > 100 µM | > 100 µM | > 100 µM
12 | CCCCCCCCCC(=O)NCCc1c[nH]c2ccc(OC)cc12 | 30.6 µM | 89.8 µM | – | 31.3 µM | > 100 µM | > 100 µM | 34 µM | > 100 µM | 32 µM | 67 µM | 32 µM | 31.2 µM | 34.5 µM | 54 µM | 31.2 µM | 42.1 µM | 34.3 µM | 50.1 µM
13 | O=C(O)CCNc1ncc2c(n1)-c1ccccc1OC2 | > 100 µM | > 100 µM | > 100 µM | > 100 µM | > 100 µM | > 100 µM | > 100 µM | > 100 µM | > 100 µM | > 100 µM | > 100 µM | > 100 µM | > 100 µM | – | > 100 µM | > 100 µM | > 100 µM | > 100 µM

Source: PubChem BioAssay (NCI)
